Source: patent publication EP4559908A1, “HETEROARYL DERIVATIVE COMPOUND AND USE THEREOF” (S2CBio Inc., priority 2022, dated 2024)

Biological target: T1, human ANO6 (variant 5) (Homo sapiens, UniProt Q4KMQ2)
T1 construct: expressed in transfected cells; host or cells: Fischer rat thyroid (FRT) cells
T1 sequence (Q4KMQ2 1-931 isoform Q4KMQ2-2): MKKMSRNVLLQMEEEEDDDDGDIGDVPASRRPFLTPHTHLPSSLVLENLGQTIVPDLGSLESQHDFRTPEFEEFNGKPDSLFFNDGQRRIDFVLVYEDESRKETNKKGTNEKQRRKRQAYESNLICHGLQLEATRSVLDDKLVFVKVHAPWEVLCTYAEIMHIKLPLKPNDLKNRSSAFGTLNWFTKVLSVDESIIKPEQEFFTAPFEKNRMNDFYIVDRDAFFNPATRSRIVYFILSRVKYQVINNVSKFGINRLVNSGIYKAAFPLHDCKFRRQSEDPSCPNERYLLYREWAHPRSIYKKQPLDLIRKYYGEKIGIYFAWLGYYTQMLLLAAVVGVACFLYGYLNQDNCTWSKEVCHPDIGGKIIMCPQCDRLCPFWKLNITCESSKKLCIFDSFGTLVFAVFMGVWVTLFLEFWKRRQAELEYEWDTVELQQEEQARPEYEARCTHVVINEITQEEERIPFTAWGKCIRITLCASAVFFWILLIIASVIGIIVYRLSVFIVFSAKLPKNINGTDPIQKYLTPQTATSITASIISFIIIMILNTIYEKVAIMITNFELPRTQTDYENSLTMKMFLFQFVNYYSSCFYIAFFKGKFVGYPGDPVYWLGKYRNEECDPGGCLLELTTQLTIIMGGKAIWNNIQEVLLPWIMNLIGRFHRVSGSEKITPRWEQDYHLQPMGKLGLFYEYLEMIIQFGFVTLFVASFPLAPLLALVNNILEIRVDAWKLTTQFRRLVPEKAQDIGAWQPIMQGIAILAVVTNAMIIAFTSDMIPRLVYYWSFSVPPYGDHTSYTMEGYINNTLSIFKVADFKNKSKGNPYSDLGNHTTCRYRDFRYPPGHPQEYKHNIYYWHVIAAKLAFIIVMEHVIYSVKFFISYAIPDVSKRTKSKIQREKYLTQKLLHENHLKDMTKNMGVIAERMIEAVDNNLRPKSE
Assay: Lact C2 assay (measuring phosphatidylserine externalization scramblase function)
Format: cell-based
Conditions: FRT, FRT cells expressing human ANO6 (variant 5), ionomycin 10 µM, Lact-C2-GFP fluorescence, average of three tests; for inhibition at 0.05 µM: compound 50 nM, read-out: % Inhibition 50 nM; for inhibition at 1 µM: compound 1 µM, read-out: % Inhibition 1 µM; for inhibition at 0.1 µM: compound 100 nM
Outline: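 Cells were pretreated 10 min with compound (50 nM, 100 nM, 1 µM; 1% DMSO), then given 10 µM ionomycin for 10 min. Surface phosphatidylserine was stained with 500 nM Lact-C2-GFP (10 min, 37 °C), fixed and imaged. Inhibition was scaled between untreated (100%) and ionomycin-alone (0%) wells.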

inhibition at 0.05 µM | inhibition at 1 µM | inhibition at 0.1 µM | Structure (SMILES)
> 60% |  |  | Fc1ccc(-c2ccc(Nc3cccc(-c4nc5ccccc5[nH]4)c3)cc2)nn1 [Example 265, 3-(1H-benzo[d]imidazol-2-yl)-N-(4-(6-fluoropyridazin-3-yl)phenyl)aniline]
30 to 60% | > 60% |  | Fc1cc2nc(-c3cccc(Nc4cnc(-c5ccccn5)cn4)c3)[nH]c2cc1F [Example 298, N-(3-(5,6-difluoro-1H-benzo[d]imidazol-2-yl)phenyl)-5-(pyridin-2-yl)pyrazin-2-amine]
> 60% | > 60% | > 60% | FC(F)(F)c1cc2nc(-c3cccc(Nc4ccc(-c5ccccc5)nn4)c3)[nH]c2cc1Br [Example 9, N-{3-[6-bromo-5-(trifluoromethyl)-1H-benzo[d]imidazol-2-yl]phenyl}-6-phenylpyridazin-3-amine]
30 to 60% |  | 30 to 60% | c1cc(Nc2ncc(-c3cccnn3)cn2)cc(-c2nc3ccccc3[nH]2)c1 [Example 53, N-[3-(1H-benzo[d]imidazol-2-yl)phenyl]-5-(pyridazin-3-yl)pyrimidin-2-amine]
> 60% | > 60% |  | Fc1cccc(-c2ccc(Nc3cccc(-c4nc5ccc(C(F)(F)F)cc5[nH]4)c3)cc2)n1 [Example 252, N-(4-(6-fluoropyridin-2-yl)phenyl)-3-(6-(trifluoromethyl)-1H-benzo[d]imidazol-2-yl)aniline]
30 to 60% | > 60% |  | FC(F)(F)c1ccc2nc(-c3ccnc(Nc4ccc(-c5cccnn5)cc4)c3)[nH]c2c1 [Example 261, N-(4-(pyridazin-3-yl)phenyl)-4-(6-(trifluoromethyl)-1H-benzo[d]imidazol-2-yl) pyridin-2-amine]
 | 30 to 60% |  | FC(F)(F)c1cccc2nc(-c3cccc(Nc4ncc(-c5cccnn5)cn4)c3)[nH]c12 [Example 289, 5-(pyridazin-3-yl)-N-(3-(7-(trifluoromethyl)-1H-benzo[d]imidazol-2-yl)phenyl)pyrimidin-2-amine]
 | 30 to 60% |  | COc1ccc2nc(-c3cccc(Nc4ncc(-c5cccnn5)cn4)c3)[nH]c2c1 [Example 108, N-[3-(6-methoxy-1H-benzo[d]imidazol-2-yl)phenyl]-5-pyridazin-3-yl-pyrimidin-2-amine]
> 60% | > 60% | > 60% | FC(F)(F)Oc1cc2nc(-c3cccc(Nc4ccc(-c5ccccc5)nn4)c3)[nH]c2cc1Cl [Example 10, N-{3-[6-chloro-5-(trifluoromethoxy)-1H-benzo[d]imidazol-2-yl]phenyl}-6-phenylpyridazin-3-amine]
 |  | 30 to 60% | c1cnc(-c2ccc(Nc3cccc(-c4nc5ccccc5[nH]4)c3)nc2)nc1 [Example 69, N-(3-(lH-benzo[d]imidazol-2-yl)phenyl)-5-(pyrimidin-2-yl)pyridin-2-amine]
> 60% | > 60% |  | Cc1cccc2nc(-c3cccc(Nc4ccc(-c5cccnn5)cc4)c3)[nH]c12 [Example 101, 3-(7-methyl-1H-benzo[d]imidazol-2-yl)-N-(4-pyridazin-3-ylphenyl)aniline]
30 to 60% | > 60% | > 60% | FC(F)(F)c1ccc2nc(-c3cccc(Nc4ccc(-c5ccccc5)nn4)c3)[nH]c2c1 [Example 1, 6-phenyl-N-(3-(6-(trifluoromethyl)-1H-benzo[d]imidazol-2-yl)phenyl)pyridazin-3-amine]
> 60% |  | > 60% | FC(F)(F)c1ccc2nc(-c3cccc(Nc4ccc(-c5cnccn5)cc4)c3)[nH]c2c1 [Example 29, N-[4-(pyrazin-2-yl)phenyl]-3-[6-(trifluoromethyl)-1H-benzo[d]imidazol-2-yl]aniline]
> 60% | > 60% |  | FC(F)(F)Oc1ccc2nc(-c3cccc(Nc4ccc(-c5ccncn5)cc4)c3)[nH]c2c1 [Example 109, N-(4-pyrimidin-4-ylphenyl)-3-[6-(trifluoromethoxy)-1H-benzo[d]imidazol-2-yl]aniline]
 | > 60% |  | Clc1cc2[nH]c(-c3cccc(Nc4cnc(-c5ccccn5)cn4)c3)nc2cn1 [Example 301, N-(3-(6-chloro-1H-imidazo[4,5-c]pyridin-2-yl)phenyl)-5-(pyridin-2-yl)pyrazin-2-amine]
> 60% |  |  | FC(F)(F)c1ccc2nc(-c3cccc(Nc4ncc(-c5ccccn5)cn4)c3)[nH]c2c1 [Example 83, 5-(2-pyridyl)-N-[3-[6-(trifluoromethyl)-1H-benzo[d]imidazol-2-yl]phenyl]pyrimidin-2-amine]
 | > 60% |  | FC(F)(F)c1cc2[nH]c(-c3cccc(Nc4ccc(-c5ccncn5)cc4)c3)nc2cn1 [Example 86, N-(4-pyrimidin-4-ylphenyl)-3-[6-(trifluoromethyl)-1H-imidazo[4,5-c]pyridin-2-yl]aniline]
 | > 60% | > 60% | FC(F)(F)Oc1ccc2nc(-c3cccc(Nc4ccc(-c5ccccc5)nn4)c3)[nH]c2c1 [Example 6, 6-phenyl-N-(3-(6-(trifluoromethoxy)-1H-benzo[d]imidazol-2-yl)phenyl)pyridazin-3-amine]
> 60% | > 60% |  | Fc1cccc(-c2cnc(Nc3cccc(-c4nc5ccc(C(F)(F)F)cc5[nH]4)c3)nc2)n1 [Example 258, 5-(6-fluoropyridin-2-yl)-N-(3-(6-(trifluoromethyl)-1H-benzo[d]imidazol-2-yl)phenyl)pyrimidin-2-amine]
> 60% | > 60% |  | FC(F)(F)c1cc2[nH]c(-c3cccc(Nc4ncc(-c5ccccn5)cn4)c3)nc2cn1 [Example 242, 5-(pyridin-2-yl)-N-(3-(6-(trifluoromethyl)-1H-imidazo[4,5-c]pyridin-2-yl)phenyl)pyrimidin-2-amine]
> 60% | > 60% |  | FC(F)(F)c1cc2[nH]c(-c3cccc(Nc4ccc(-c5ccccn5)cn4)c3)nc2cn1 [Example 238, N-(3-(6-(trifluoromethyl)-1H-imidazo [4,5-c]pyridin-2-yl)phenyl)-[2,3'-bipyridin]-6'-amine]
> 60% | > 60% |  | Brc1ccc2nc(-c3cccc(Nc4ccc(-c5cccnn5)cc4)c3)[nH]c2c1 [Example 308, 3-(6-bromo-1H-benzo[d]imidazol-2-yl)-N-(4-(pyridazin-3-yl)phenyl)aniline]
 | > 60% |  | Clc1cc2[nH]c(-c3cccc(Nc4ncc(-c5cscn5)cn4)c3)nc2cn1 [Example 303, N-(3-(6-chloro-1H-imidazo[4,5-c]pyridin-2-yl)phenyl)-5-(thiazol-4-yl)pyrimidin-2-amine]
> 60% |  |  | Fc1cc2nc(-c3cccc(Nc4ccc(-c5cccnn5)cc4)c3)[nH]c2cc1F [Example 81, 3-(5,6-difluoro-1H-benzo[d]imidazol-2-yl)-N-(4-pyridazin-3-ylphenyl)aniline]
> 60% | > 60% |  | N#Cc1ccc(Nc2cccc(-c3nc4ccc(C(F)(F)F)cc4[nH]3)c2)nc1 [Example 314, 6-((3-(6-(trifluoromethyl)-1H-benzo[d]imidazol-2-yl)phenyl)amino)nicotinonitrile]
 | 30 to 60% |  | CNc1ccc2nc(-c3cccc(Nc4ccc(-c5cccnn5)cc4)c3)[nH]c2c1 [Example 279, N-methyl-2-(3-((4-(pyridazin-3-yl)phenyl)amino)phenyl)-1H-benzo[d]imidazol-6-amine]
30 to 60% | > 60% |  | Fc1cccc(-c2cnc(Nc3cccc(-c4nc5ccccc5[nH]4)c3)nc2)n1 [Example 259, N-(3-(1H-benzo[d]imidazol-2-yl)phenyl)-5-(6-fluoropyridin-2-yl) pyrimidin-2-amine]
 | > 60% |  | N#Cc1ccc(Nc2cccc(-c3nc4ccc(C(F)(F)F)cc4[nH]3)c2)cc1 [Example 315, 4-((3-(6-(trifluoromethyl)-1H-benzo[d]imidazol-2-yl)phenyl)amino)benzonitrile]
> 60% | > 60% | > 60% | FC(F)(F)c1ccc2nc(-c3cccc(Nc4ccc(-c5ncccn5)cc4)c3)[nH]c2c1 [Example 27, N-[4-(pyrimidin-2-yl)phenyl]-3-[6-(trifluoromethyl)-1H-benzo[d]imidazol-2-yl]aniline]
